Holding throughout (assay): cells
The subject of test [1] is AsPC-1. Further details: Viability of PDAC cell lines, ATPlite luminescence, 11-dose single-agent curve fit. As to conditions: Homo sapiens, ASPC1, 72 h, read-out: EC50 [nM]. As to the method: (§1) Afterward, small amounts were transferred to 384-well intermediate plates (Greiner Bio-One GmbH, Germany). […] For drug combination screening, 1000 to 5000 cells were seeded into 384-well plates (CulturPlate™, Perkin Elmer, MA, USA) using a Multidrop™ Combi Reagent Dispenser (Thermo Scientific, MA, USA) in 50 µl medium per well 24 h prior to drug treatment (seeding densities see Appendix Table S1). […] The final DMSO concentration in each well was 0.2%. […] Eight wells per plate without library drug served as negative controls, and sixteen wells per plate containing 5 µM Staurosporine served as positive controls. […] Next, we analyzed the drug sensitivity of immortalized duct cell line HPDE to detect effects unrelated to pancreatic cancer.

In test [2] the test system is BxPC-3. Further details: Viability of PDAC cell lines, ATPlite luminescence, 11-dose single-agent curve fit. The conditions noted are these: Homo sapiens, BXPC-3, 72 h, read-out: EC50 [nM]. The method, then:
as §1

Test [3] relates to Capan-1. Further details: Viability of PDAC cell lines, ATPlite luminescence, 11-dose single-agent curve fit. The conditions noted are these: Homo sapiens, CAPAN-1, 72 h, read-out: EC50 [nM]. As to the method:
as §1

For test [4], the system named is Colo-357. Also noted: Viability of PDAC cell lines, ATPlite luminescence, 11-dose single-agent curve fit. As to conditions: Homo sapiens, COLO357, 72 h, read-out: EC50 [nM]. As to the method:
as §1

For test [5], the system named is Dan-G. Further details: Viability of PDAC cell lines, ATPlite luminescence, 11-dose single-agent curve fit. As to conditions: 72 h, read-out: EC50 [nM]. The method, then:
as §1

The subject of test [6] is HPDE. Further details: Viability of PDAC cell lines, ATPlite luminescence, 11-dose single-agent curve fit. As to conditions: HPDE, 72 h, read-out: EC50 [nM]. As to the method: as §1
Test [7] has as its system MiaPaCa-2. Further details: Viability of PDAC cell lines, ATPlite luminescence, 11-dose single-agent curve fit. As to conditions: Homo sapiens, MIA PaCa-2, 72 h, read-out: EC50 [nM]. As to the method: as §1
The subject of test [8] is PANC-1. Also noted: Viability of PDAC cell lines, ATPlite luminescence, 11-dose single-agent curve fit. As to conditions: Homo sapiens, PANC-1, 72 h, read-out: EC50 [nM]. The method, then: as §1
Test [9] has as its system PSN-1. Further details: Viability of PDAC cell lines, ATPlite luminescence, 11-dose single-agent curve fit. The conditions noted are these: Homo sapiens, PSN1, 72 h, read-out: EC50 [nM]. The method, then:
as §1

For test [10], the system named is PaTu-8988-T. Also noted: Viability of PDAC cell lines, ATPlite luminescence, 11-dose single-agent curve fit. The conditions noted are these: Homo sapiens, PaTu 8988t, 72 h, read-out: EC50 [nM]. The method, then:
as §1

The subject of test [11] is Suit2-07. Also noted: Viability of PDAC cell lines, ATPlite luminescence, 11-dose single-agent curve fit. The conditions noted are these: 72 h, read-out: EC50 [nM]. As to the method: as §1
Test [12] deals with HuP-T4. Further details: Viability of PDAC cell lines, ATPlite luminescence, 11-dose single-agent curve fit. As to conditions: Homo sapiens, HuP-T4, 72 h, read-out: EC50 [nM]. As to the method:
as §1

The subject of test [13] is MiaPaCa-2. Further details: ATPlite luminescence viability of PDAC cell lines, 11-dose single-agent curves, 4-parameter fit. As to conditions: Homo sapiens, MIA PaCa-2, 72 h, read-out: EC50 [nM]. The method, then: as §1
Test [14] has as its system PSN-1. Further details: ATPlite luminescence viability of PDAC cell lines, 11-dose single-agent curves, 4-parameter fit. As to conditions: Homo sapiens, PSN1, 72 h, read-out: EC50 [nM]. As to the method: as §1
The test system of test [15] is FAMPAC. Also noted: Viability of PDAC cell lines, ATPlite luminescence, 11-dose single-agent curve fit. As to conditions: 72 h, read-out: EC50 [nM]. As to the method: as §1
Test [16] deals with BxPC-3. Also noted: ATPlite luminescence viability of PDAC cell lines, 11-dose single-agent curves, 4-parameter fit. As to conditions: Homo sapiens, BXPC-3, 72 h, read-out: EC50 [nM]. The method, then: as §1
Test [17] has as its system FAMPAC. Further details: ATPlite luminescence viability of PDAC cell lines, 11-dose single-agent curves, 4-parameter fit. The conditions noted are these: 72 h, read-out: EC50 [nM]. As to the method:
as §1

Test [18] has as its system Dan-G. Also noted: ATPlite luminescence viability of PDAC cell lines, 11-dose single-agent curves, 4-parameter fit. As to conditions: 72 h, read-out: EC50 [nM]. As to the method:
as §1

The subject of test [19] is Suit2-07. Further details: ATPlite luminescence viability of PDAC cell lines, 11-dose single-agent curves, 4-parameter fit. The conditions noted are these: 72 h, read-out: EC50 [nM]. As to the method: as §1

In PMC11876601 (Molecular Systems Biology, 2025) one finds EC50 data, which are given here for twelve compounds.

Read-outs that look alike come from different tables or passages of the source.

One may read the EC50 as the midpoint of the concentration-response curve. For `C=CC(=O)N1CCC(CNc2ncnc(N)c2-c2ccc(Oc3ccccc3)cc2)CC1` [Evobrutinib], the EC50 in [1] is 1070 nM; in test [2] it was 2910 nM; in test [3], greater than 10000 nM; in test [4], 31.5 nM; in [5] it was 493 nM; in [6] it was 2.61 nM. Also, the EC50 was 4490 nM in test [7]; greater than 10000 nM in test [8]; 571 nM in test [9]; 213 nM in [10]; 1.96 nM in [11].

Turning to `Cc1cc2c(F)c(Oc3ncnn4cc(OC[C@@H](C)O)c(C)c34)ccc2[nH]1` [Brivanib], the EC50 in test [1] is 156 nM; in test [2], 3.14 nM; in [3], greater than 10000 nM; in [4], 8830 nM; in test [5], greater than 10000 nM; in test [6], greater than 10000 nM. Besides, the EC50 in test [12] was 5470 nM; in test [7], 7100 nM; in test [8], greater than 10000 nM; in test [9], greater than 10000 nM; in test [10], 9580 nM; in [11], greater than 10000 nM.

As for `NC(=O)c1cnc2[nH]ccc2c1N[C@@H]1[C@@H]2CC3C[C@H]1C[C@@](O)(C3)C2` [Peficitinib], the EC50 in [13] was 3920 nM; in [14] it was 6420 nM; in test [1] it was greater than 10000 nM; in [2], greater than 10000 nM; in [3], greater than 10000 nM; in test [4] it was 6330 nM. The EC50 is 3590 nM in [5]; greater than 10000 nM in test [15]; 8470 nM in test [6]; 116 nM in test [12]; 282 nM in [8]; greater than 10000 nM in [10]. Besides, in test [11], the EC50 is 2770 nM.

In the case of `CNC(=O)c1ccc(Nc2ncc(C(F)(F)F)c(NCc3nccnc3N(C)S(C)(=O)=O)n2)cc1` [Defactinib], the EC50 in test [16] is greater than 10000 nM; in test [17], greater than 10000 nM; in [13], 4660 nM; in test [14], 4590 nM; in [1] it was 3350 nM; in [3] it was 3400 nM. Further, the EC50 is 3820 nM in test [4]; 7590 nM in [5]; 3690 nM in test [6]; 441 nM in test [12]; 142 nM in [8]; 9750 nM in test [10]. Also, the EC50 in [11] was greater than 10000 nM.

On to `C[C@H](Nc1ncnc2nc[nH]c12)c1cc2cccc(Cl)c2c(=O)n1-c1ccccc1` [Duvelisib], for which the half-maximal effective concentration (EC50) in test [18] is 5640 nM; in [1] it was greater than 10000 nM; in [2], 2870 nM; in test [3] it was 4650 nM; in test [4] it was 3070 nM; in test [15], 4250 nM. For the same compound, the EC50 is 6900 nM in test [6]; 109 nM in test [12]; 2130 nM in [7]; 1590 nM in test [8]; 883 nM in [9]; greater than 10000 nM in test [10]. Further, the EC50 in test [11] is greater than 10000 nM.

`Cc1ccc(F)c(NC(=O)Nc2ccc(-c3cccc4[nH]nc(N)c34)cc2)c1` [Linifanib]: the EC50 was determined as 32.7 nM in test [1]; 792 nM in test [2]; 47 nM in [3]; 131 nM in test [4]; 27.9 nM in test [5]; 3290 nM in test [15]. Moreover, the EC50 in [6] is 311 nM; in [12], 1100 nM; in test [7], 1830 nM; in [8], 1420 nM; in [9], greater than 10000 nM; in test [11], 864 nM.

As for `CN(C)C(=O)c1cc2cnc(Nc3ccc(N4CCNCC4)cn3)nc2n1C1CCCC1` [Ribociclib], the EC50 worked out at 1280 nM in [13]; 6480 nM in [1]; 227 nM in [2]; 491 nM in [3]; 1280 nM in [4]; 3080 nM in test [5]. For the same compound, the EC50 is 401 nM in test [15]; 49.6 nM in [6]; 1230 nM in test [12]; greater than 10000 nM in [8]; 2250 nM in [9]; 9690 nM in [10]. In addition, in test [11], the EC50 came to 985 nM.

Regarding `[2H]C([2H])([2H])NC(=O)c1nnc(NC(=O)C2CC2)cc1Nc1cccc(-c2ncn(C)n2)c1OC` [BMS986165], the concentration giving a half-maximal response (EC50) in test [1] was 4870 nM; in test [2], greater than 10000 nM; in [4], 9560 nM; in test [5], 3350 nM; in test [15] it was greater than 10000 nM; in [6], 2330 nM. Besides, the EC50 in test [12] was 4610 nM; in test [7], 7220 nM; in [8], 2070 nM; in test [9], 7570 nM; in test [10], greater than 10000 nM; in test [11], greater than 10000 nM.

Consider `O=C(Nc1nc2cccc(-c3ccc(CN4CCS(=O)(=O)CC4)cc3)n2n1)C1CC1` [Filgotinib], for which the EC50 in [17] is 8160 nM; in test [13], greater than 10000 nM; in test [14], 7590 nM; in [1], 305 nM; in test [2], 9420 nM; in [3], 5940 nM. For the same compound, the EC50 in test [4] is 3490 nM; in test [5] it was 6150 nM; in test [6], 1990 nM; in test [12] it was 172 nM; in [8] it was 43.9 nM; in [10], greater than 10000 nM. Also, the EC50 in test [11] stood at 2150 nM.

As for `CCc1cc2c(cc1N1CCC(N3CCOCC3)CC1)C(C)(C)c1[nH]c3cc(C#N)ccc3c1C2=O` [Alectinib], the EC50 was 99.3 nM in test [2]; 220 nM in [4]; greater than 10000 nM in test [5]; 9090 nM in test [15]; 2130 nM in [6]; 680 nM in test [12]. Moreover, the EC50 in [7] was 71.8 nM; in [8], 80.3 nM; in test [9], 0.05 nM; in [10], 28 nM; in test [11], 2390 nM.

As for `CCN1C(=O)N(c2c(F)c(OC)cc(OC)c2F)Cc2cnc3[nH]c(CN4CCOCC4)cc3c21` [Pemigatinib], the EC50 in [16] is 1370 nM; in test [17] it was 3320 nM; in [13], greater than 10000 nM; in test [19] it was 3040 nM; in test [1], 3480 nM; in test [3] it was 2030 nM. In addition, the EC50 is 2990 nM in test [4]; 2970 nM in test [5]; 3380 nM in test [6]; 3.44 nM in test [12]; 442 nM in test [8]; 2710 nM in test [9]. For the same compound, in test [10], the EC50 is 3280 nM.

Consider `CN1CC[C@@H](NC(=O)Nc2ccc(C#N)cc2)C[C@@H]1c1nc2ccccc2[nH]1` [Glasdegib], for which the EC50 in [1] was 28.4 nM; in test [2], 164 nM; in test [4] it was 352 nM; in test [5], 176 nM; in test [15] it was 1230 nM; in test [6] it was 110 nM. In addition, the EC50 in [12] is 208 nM; in test [7] it was greater than 10000 nM; in test [8], 2580 nM; in test [9], 846 nM; in test [10], 0.5 nM; in test [11], 523 nM.
